{"source": "patent US20240210412A1", "about": "“SULFONYL-TRIAZOLE COMPOUNDS USEFUL AS LIGANDS AND INHIBITORS OF PROSTAGLANDIN REDUCTASE 2” (University of Virginia Patent Foundation, priority 2021, published 2024)", "assay_in_all_cases": "SILAC LC-MS ABPP", "type_in_all_cases": "cell-based", "settings_in_all_cases": "25 μM 2 h, live DM93 cells", "key": {"P30086": {"target": "T1, P30086 (Homo sapiens, UniProt P30086)", "T1 construct": "endogenous in cells; host or cells: DM93 (SILAC)", "how_it_was_run": "(§1)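 In DM93 melanoma cells, heavy SILAC cultures take 25 μM SuTEx compound for 2 h at 37 °C while light cultures take DMSO. Both then receive HHS-475 alkyne probe at 100 μM for 2 h; probe-modified peptides are quantified by LC-MS/MS.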"}, "P78527": {"target": "T2, P78527 (Homo sapiens, UniProt P78527)", "T2 construct": "performing SuTEx compound screening directly in cells; endogenous in cells; host or cells: DM93 cells (SILAC)", "how_it_was_run": "as §1"}, "Q12874": {"target": "T3, Q12874 (Homo sapiens, UniProt Q12874)", "T3 construct": "performing SuTEx compound screening directly in cells; endogenous in cells; host or cells: DM93 cells (SILAC)", "T3 sequence (Q12874 whole entry)": "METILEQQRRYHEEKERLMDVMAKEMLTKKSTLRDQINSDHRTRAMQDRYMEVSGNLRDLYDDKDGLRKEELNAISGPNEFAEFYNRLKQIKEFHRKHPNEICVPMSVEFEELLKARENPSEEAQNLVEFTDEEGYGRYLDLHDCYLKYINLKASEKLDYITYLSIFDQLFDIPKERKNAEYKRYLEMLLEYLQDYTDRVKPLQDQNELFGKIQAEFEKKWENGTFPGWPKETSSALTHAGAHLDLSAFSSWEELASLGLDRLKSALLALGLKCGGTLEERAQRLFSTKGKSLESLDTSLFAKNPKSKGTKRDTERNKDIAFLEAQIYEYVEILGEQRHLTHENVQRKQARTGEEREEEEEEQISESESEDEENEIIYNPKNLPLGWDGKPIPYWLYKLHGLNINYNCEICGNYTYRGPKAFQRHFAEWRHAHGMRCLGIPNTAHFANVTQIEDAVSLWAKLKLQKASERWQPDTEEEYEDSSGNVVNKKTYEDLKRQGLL", "how_it_was_run": "as §1"}, "Q9NW64": {"target": "T4, Q9NW64 (Homo sapiens, UniProt Q9NW64)", "T4 construct": "endogenous in cells; host or cells: DM93 cells (SILAC)", "T4 sequence (Q9NW64 whole entry)": "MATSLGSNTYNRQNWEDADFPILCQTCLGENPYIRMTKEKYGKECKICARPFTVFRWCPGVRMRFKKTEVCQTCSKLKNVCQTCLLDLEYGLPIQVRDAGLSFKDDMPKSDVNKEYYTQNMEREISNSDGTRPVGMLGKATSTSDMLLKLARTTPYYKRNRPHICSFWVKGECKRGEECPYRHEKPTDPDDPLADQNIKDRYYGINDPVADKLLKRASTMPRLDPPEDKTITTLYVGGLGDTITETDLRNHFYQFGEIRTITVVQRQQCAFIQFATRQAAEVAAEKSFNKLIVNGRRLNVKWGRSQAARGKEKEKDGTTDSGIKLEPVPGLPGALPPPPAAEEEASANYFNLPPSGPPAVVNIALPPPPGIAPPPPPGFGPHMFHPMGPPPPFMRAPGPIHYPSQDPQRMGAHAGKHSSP", "how_it_was_run": "as §1"}, "P35269": {"target": "T5, P35269 (Homo sapiens, UniProt P35269)", "T5 construct": "Probe-modified proteins from the soluble fraction were conjugated to a desthiobiotin-azide tag; endogenous in cells; host or cells: DM93 (SILAC)", "T5 sequence (P35269 whole entry)": "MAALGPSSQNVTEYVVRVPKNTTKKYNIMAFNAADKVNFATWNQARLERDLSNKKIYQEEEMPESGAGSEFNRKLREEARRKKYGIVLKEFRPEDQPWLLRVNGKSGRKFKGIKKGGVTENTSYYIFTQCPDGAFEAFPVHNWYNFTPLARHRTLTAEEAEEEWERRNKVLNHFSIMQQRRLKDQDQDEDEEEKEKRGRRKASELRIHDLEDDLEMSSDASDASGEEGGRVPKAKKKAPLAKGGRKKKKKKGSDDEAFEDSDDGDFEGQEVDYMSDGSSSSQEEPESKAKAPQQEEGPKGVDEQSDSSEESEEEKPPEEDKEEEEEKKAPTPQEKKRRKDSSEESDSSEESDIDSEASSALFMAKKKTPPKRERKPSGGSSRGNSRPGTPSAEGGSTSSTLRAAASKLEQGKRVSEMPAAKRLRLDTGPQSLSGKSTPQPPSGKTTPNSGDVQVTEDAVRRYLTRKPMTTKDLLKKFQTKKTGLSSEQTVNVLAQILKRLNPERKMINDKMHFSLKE", "how_it_was_run": "as §1"}, "P46940": {"target": "T6, P46940 (Homo sapiens, UniProt P46940)", "T6 construct": "endogenous in cells; host or cells: DM93 cells (SILAC)", "T6 sequence (P46940 whole entry)": "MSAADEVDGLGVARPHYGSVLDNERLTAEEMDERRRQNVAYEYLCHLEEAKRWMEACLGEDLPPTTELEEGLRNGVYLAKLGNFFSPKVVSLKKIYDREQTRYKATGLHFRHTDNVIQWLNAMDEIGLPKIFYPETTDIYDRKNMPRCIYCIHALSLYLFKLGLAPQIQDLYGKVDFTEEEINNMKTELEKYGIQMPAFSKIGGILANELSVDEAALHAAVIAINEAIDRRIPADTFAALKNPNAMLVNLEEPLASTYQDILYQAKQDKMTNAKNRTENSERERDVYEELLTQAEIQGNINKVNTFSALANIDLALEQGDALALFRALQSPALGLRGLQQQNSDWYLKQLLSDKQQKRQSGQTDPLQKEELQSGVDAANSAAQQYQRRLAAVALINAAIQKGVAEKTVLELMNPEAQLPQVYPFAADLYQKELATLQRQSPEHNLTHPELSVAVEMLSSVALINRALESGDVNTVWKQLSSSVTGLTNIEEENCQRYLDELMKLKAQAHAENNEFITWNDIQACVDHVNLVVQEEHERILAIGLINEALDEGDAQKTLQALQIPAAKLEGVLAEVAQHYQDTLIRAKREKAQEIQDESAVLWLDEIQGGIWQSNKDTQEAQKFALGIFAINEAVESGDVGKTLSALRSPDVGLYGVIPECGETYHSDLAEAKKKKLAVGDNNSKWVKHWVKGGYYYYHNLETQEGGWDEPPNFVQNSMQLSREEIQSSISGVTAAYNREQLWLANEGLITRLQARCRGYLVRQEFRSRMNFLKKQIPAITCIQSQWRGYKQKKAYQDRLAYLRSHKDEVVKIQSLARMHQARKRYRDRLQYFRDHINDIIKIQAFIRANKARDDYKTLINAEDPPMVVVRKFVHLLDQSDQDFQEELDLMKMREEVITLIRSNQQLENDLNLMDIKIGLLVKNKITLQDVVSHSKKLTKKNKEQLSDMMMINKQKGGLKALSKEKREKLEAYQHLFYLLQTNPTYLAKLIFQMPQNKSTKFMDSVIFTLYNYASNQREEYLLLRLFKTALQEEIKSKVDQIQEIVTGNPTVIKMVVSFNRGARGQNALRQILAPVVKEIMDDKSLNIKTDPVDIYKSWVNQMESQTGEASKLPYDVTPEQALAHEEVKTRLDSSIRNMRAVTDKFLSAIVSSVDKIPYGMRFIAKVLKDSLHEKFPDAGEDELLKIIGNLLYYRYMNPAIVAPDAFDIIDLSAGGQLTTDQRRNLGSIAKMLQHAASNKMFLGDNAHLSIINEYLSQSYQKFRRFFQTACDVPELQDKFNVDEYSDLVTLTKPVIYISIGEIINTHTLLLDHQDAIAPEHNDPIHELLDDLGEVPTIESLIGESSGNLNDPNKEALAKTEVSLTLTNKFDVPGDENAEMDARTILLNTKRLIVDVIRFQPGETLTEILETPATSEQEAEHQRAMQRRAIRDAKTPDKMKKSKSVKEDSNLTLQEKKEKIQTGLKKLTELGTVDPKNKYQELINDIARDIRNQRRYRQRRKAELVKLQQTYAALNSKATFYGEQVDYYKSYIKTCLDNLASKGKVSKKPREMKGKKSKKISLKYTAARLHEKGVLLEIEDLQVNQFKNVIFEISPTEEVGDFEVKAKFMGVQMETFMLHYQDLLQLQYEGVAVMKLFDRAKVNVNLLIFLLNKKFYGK", "how_it_was_run": "as §1"}, "P54578": {"target": "T7, P54578 (Homo sapiens, UniProt P54578)", "T7 construct": "endogenous in cells; host or cells: DM93 cells (SILAC)", "how_it_was_run": "as §1"}, "Q6ZSZ5": {"target": "T8, Q6ZSZ5 (Homo sapiens, UniProt Q6ZSZ5)", "T8 construct": "endogenous in cells; host or cells: DM93 cells (SILAC), live-cell treatment", "how_it_was_run": "as §1"}, "O95453": {"target": "T9, O95453 (Homo sapiens, UniProt O95453)", "T9 construct": "endogenous in cells; host or cells: DM93 cells (SILAC)", "T9 sequence (O95453 whole entry)": "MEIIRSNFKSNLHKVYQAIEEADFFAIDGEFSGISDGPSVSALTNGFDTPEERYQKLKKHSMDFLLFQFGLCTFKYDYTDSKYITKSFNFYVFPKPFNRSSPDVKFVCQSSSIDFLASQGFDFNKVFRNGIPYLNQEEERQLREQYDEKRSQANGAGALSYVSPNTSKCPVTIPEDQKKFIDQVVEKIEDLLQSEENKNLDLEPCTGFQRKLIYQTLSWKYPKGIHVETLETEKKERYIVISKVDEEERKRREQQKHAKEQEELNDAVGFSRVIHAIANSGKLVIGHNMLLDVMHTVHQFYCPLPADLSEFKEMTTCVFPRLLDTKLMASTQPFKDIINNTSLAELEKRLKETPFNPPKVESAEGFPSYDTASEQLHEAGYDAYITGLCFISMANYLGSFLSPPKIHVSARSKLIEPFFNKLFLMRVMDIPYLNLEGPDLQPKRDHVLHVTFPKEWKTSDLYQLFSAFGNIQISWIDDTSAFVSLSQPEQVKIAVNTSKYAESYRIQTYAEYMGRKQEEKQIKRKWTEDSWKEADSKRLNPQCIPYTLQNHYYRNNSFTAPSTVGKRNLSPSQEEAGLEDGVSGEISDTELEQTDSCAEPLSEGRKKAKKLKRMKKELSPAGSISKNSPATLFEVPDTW", "how_it_was_run": "as §1"}, "P06132": {"target": "T10, P06132 (Homo sapiens, UniProt P06132)", "T10 construct": "endogenous in cells; host or cells: DM93 cells (SILAC)", "how_it_was_run": "as §1"}, "P15559": {"target": "T11, P15559 (Homo sapiens, UniProt P15559)", "T11 construct": "endogenous in cells; host or cells: DM93 cells (SILAC)", "how_it_was_run": "as §1"}, "Q13428": {"target": "T12, Q13428 (Homo sapiens, UniProt Q13428)", "T12 construct": "performing SuTEx compound screening directly in cells; endogenous in cells; host or cells: DM93 cells (SILAC), soluble fraction", "how_it_was_run": "as §1"}, "Q5T6F2": {"target": "T13, Q5T6F2 (Homo sapiens, UniProt Q5T6F2)", "T13 construct": "performing SuTEx compound screening directly in cells; endogenous in cells; host or cells: DM93 cells (SILAC), soluble fraction", "T13 sequence (Q5T6F2 whole entry)": "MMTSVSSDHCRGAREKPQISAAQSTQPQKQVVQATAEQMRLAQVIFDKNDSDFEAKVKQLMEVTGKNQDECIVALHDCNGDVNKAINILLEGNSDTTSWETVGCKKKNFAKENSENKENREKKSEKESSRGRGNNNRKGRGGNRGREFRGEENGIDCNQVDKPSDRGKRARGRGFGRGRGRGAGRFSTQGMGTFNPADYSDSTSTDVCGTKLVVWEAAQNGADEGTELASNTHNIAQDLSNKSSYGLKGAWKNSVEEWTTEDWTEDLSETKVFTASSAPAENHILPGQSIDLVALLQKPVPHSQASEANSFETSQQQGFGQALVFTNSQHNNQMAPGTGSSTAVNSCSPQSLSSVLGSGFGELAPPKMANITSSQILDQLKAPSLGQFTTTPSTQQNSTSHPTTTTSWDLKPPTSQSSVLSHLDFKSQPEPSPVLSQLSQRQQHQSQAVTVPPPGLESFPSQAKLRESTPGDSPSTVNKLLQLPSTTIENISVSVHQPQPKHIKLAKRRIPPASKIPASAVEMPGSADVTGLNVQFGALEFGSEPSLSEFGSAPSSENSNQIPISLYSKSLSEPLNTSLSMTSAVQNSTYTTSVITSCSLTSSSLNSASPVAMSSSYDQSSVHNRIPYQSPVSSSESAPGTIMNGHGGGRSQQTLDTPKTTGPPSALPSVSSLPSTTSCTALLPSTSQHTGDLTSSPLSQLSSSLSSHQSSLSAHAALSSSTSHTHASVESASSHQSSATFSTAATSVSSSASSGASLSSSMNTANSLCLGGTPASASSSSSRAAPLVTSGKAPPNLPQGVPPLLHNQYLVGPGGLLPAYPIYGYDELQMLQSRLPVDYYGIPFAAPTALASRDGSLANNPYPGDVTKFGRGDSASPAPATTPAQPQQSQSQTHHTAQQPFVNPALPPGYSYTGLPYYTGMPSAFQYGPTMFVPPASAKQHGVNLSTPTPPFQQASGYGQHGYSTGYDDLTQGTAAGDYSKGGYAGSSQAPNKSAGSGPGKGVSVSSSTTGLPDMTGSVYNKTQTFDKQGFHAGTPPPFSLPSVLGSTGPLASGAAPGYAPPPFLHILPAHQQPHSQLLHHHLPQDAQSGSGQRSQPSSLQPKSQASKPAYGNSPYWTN", "how_it_was_run": "as §1"}, "Q9H3P2": {"target": "T14, Q9H3P2 (Homo sapiens, UniProt Q9H3P2)", "T14 construct": "endogenous in cells; host or cells: DM93 cells (SILAC), treated live; soluble proteome analysed", "how_it_was_run": "as §1"}, "P08238": {"target": "T15, P08238 (Homo sapiens, UniProt P08238)", "T15 construct": "endogenous in cells; host or cells: DM93 cells (SILAC)", "how_it_was_run": "as §1"}, "P61289": {"target": "T16, P61289 (Homo sapiens, UniProt P61289)", "T16 construct": "endogenous in cells; host or cells: DM93 cells (SILAC)", "how_it_was_run": "as §1"}, "Q9NYF8": {"target": "T17, Q9NYF8 (Homo sapiens, UniProt Q9NYF8)", "T17 construct": "endogenous in cells; host or cells: DM93 cells (SILAC)", "how_it_was_run": "as §1"}, "Q9UJ68": {"target": "T18, Q9UJ68 (Homo sapiens, UniProt Q9UJ68)", "T18 construct": "endogenous in cells; host or cells: DM93 cells (SILAC)", "T18 sequence (Q9UJ68 24-235)": "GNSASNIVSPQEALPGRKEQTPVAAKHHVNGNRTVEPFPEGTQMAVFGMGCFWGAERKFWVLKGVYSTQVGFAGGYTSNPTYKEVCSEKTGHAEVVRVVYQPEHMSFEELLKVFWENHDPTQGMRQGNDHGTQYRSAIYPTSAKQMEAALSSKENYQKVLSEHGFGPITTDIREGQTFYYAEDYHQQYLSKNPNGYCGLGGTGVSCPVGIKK", "how_it_was_run": "as §1"}}}
{"compound": "O=C(NC1CCCCC1)c1ccc(S(=O)(=O)n2cncn2)cc1", "note": "[HHS-0301, 4-((1H-1,2,4-triazol-1-yl)sulfonyl)-N-cyclohexylbenzamide]", "values": [{"measurement": "liganded tyrosine site 106", "setting": "P30086", "value": "HHS0301.Y (tyrosine sites that showed >80% reductions (SR >5) in probe labeling in cells treated with compounds (liganded sites))"}, {"measurement": "liganded tyrosine site 701", "setting": "P78527", "value": "HHS0301.Y (tyrosine sites that showed >80% reductions (SR >5) in probe labeling in cells treated with compounds (liganded sites))"}, {"measurement": "liganded tyrosine site 139", "setting": "Q12874", "value": "HHS0301.Y (tyrosine sites that showed >80% reductions (SR >5) in probe labeling in cells treated with compounds (liganded sites))"}, {"measurement": "liganded tyrosine site 116", "setting": "Q9NW64", "value": "HHS0301.Y (tyrosine sites that showed >80% reductions (SR >5) in probe labeling in cells treated with compounds (liganded sites))"}]}
{"compound": "O=C(c1ccc(S(=O)(=O)n2cncn2)cc1)N1CCC(c2ccccc2)CC1", "note": "[HHS-0701, (4-((1H-1,2,4-triazol-1-yl)sulfonyl)phenyl)(4-phenylpiperidin-1-yl)methanone]", "values": [{"measurement": "liganded tyrosine site 124", "setting": "P35269", "value": "HHS0701.Y (tyrosine sites that showed >80% reductions (SR >5) in probe labeling in cells treated with compounds (liganded sites))"}]}
{"compound": "O=C(NCC1CC1)c1ccc(S(=O)(=O)n2cncn2)cc1", "note": "[HHS-0201, 4-((1H-1,2,4-triazol-1-yl)sulfonyl)-N-(cyclopropylmethyl)benzamide]", "values": [{"measurement": "liganded tyrosine site 977", "setting": "P46940", "value": "HHS0201.Y|HHS0301.Y|HHS0701.Y (tyrosine sites that showed >80% reductions (SR >5) in probe labeling in cells treated with compounds (liganded sites))"}, {"measurement": "liganded tyrosine site 401", "setting": "P54578", "value": "HHS0201.Y (tyrosine sites that showed >80% reductions (SR >5) in probe labeling in cells treated with compounds (liganded sites))"}, {"measurement": "liganded tyrosine site 1012", "setting": "Q6ZSZ5", "value": "HHS0201.Y (tyrosine sites that showed >80% reductions (SR >5) in probe labeling in cells treated with compounds (liganded sites))"}]}
{"compound": "O=C(NCc1ccccc1)c1ccc(S(=O)(=O)n2cncn2)cc1", "note": "[HHS-0401, 4-((1H-1,2,4-triazol-1-yl)sulfonyl)-N-benzylbenzamide]", "values": [{"measurement": "liganded tyrosine site 161", "setting": "O95453", "value": "HHS0401.Y (tyrosine sites that showed >80% reductions (SR >5) in probe labeling in cells treated with compounds (liganded sites))"}, {"measurement": "liganded tyrosine site 164", "setting": "P06132", "value": "HHS0401.Y (tyrosine sites that showed >80% reductions (SR >5) in probe labeling in cells treated with compounds (liganded sites))"}, {"measurement": "liganded tyrosine site 76", "setting": "P15559", "value": "HHS0401.Y|HHS0701.Y (tyrosine sites that showed >80% reductions (SR >5) in probe labeling in cells treated with compounds (liganded sites))"}, {"measurement": "liganded tyrosine site 15", "setting": "Q13428", "value": "HHS0401.Y (tyrosine sites that showed >80% reductions (SR >5) in probe labeling in cells treated with compounds (liganded sites))"}, {"measurement": "liganded tyrosine site 823", "setting": "Q5T6F2", "value": "HHS0401.Y (tyrosine sites that showed >80% reductions (SR >5) in probe labeling in cells treated with compounds (liganded sites))"}, {"measurement": "liganded tyrosine site 825", "setting": "Q5T6F2", "value": "HHS0401.Y (tyrosine sites that showed >80% reductions (SR >5) in probe labeling in cells treated with compounds (liganded sites))"}, {"measurement": "liganded tyrosine site 324", "setting": "Q9H3P2", "value": "HHS0401.Y|HHS0701.Y (tyrosine sites that showed >80% reductions (SR >5) in probe labeling in cells treated with compounds (liganded sites))"}]}
{"compound": "O=C(NC1CC1)c1ccc(S(=O)(=O)n2cncn2)cc1", "note": "[HHS-0101, 4-((1H-1,2,4-triazol-1-yl)sulfonyl)-N-cyclopropylbenzamide]", "values": [{"measurement": "liganded tyrosine site 430", "setting": "P08238", "value": "HHS0101.Y|HHS0201.Y|HHS0301.Y|HHS0401.Y (tyrosine sites that showed >80% reductions (SR >5) in probe labeling in cells treated with compounds (liganded sites))"}, {"measurement": "liganded tyrosine site 196", "setting": "P61289", "value": "HHS0101.Y|HHS0201.Y|HHS0401.Y (tyrosine sites that showed >80% reductions (SR >5) in probe labeling in cells treated with compounds (liganded sites))"}, {"measurement": "liganded tyrosine site 322", "setting": "Q9NYF8", "value": "HHS0101.Y|HHS0201.Y|HHS0301.Y|HHS0401.Y (tyrosine sites that showed >80% reductions (SR >5) in probe labeling in cells treated with compounds (liganded sites))"}, {"measurement": "liganded tyrosine site 211", "setting": "Q9UJ68", "value": "HHS0101.Y|HHS0401.Y|HHS0701.Y (tyrosine sites that showed >80% reductions (SR >5) in probe labeling in cells treated with compounds (liganded sites))"}]}
